The text below walks through data of publication PMC9502374, “Enzymatic and Molecular Characterization of Anti-Leishmania Molecules That Differently Target Leishmania and Mammalian eIF4A Proteins, LieIF4A and eIF4AMus” (Molecules, 2022).

Several values for one entry are separate records, joined by “and”; a condition that tells them apart may be missing. Equal values may be shown once. Read-outs that look alike come from different tables or passages of the source. Bounds are passed on as bounds.

In series [1] the test system is intramacrophage amastigotes of L. donovani (LV9). Also noted: method as in PMID 16949702. Conditions: cited from earlier work.
The subject of series [2] is L. infantum promastigotes (LV50). Description: MTT viability assay on promastigotes. The format is cell-based, Leishmania infantum. Conditions: for IC50: Leishmania infantum, stationary phase promastigotes, 24 h. The procedure: The MON1 L. infantum laboratory strain LV50 originating from a visceral leishmaniasis case (Laboratory of Molecular Epidemiology and Experimental Pathology, Institut Pasteur de Tunis) was used to test the effect of the chemical compounds. Promastigote cultures were inoculated in RPMI-1640 media supplemented with 2 mM L-glutamine, 100 U/mL penicillin, 100 U/mL streptomycin and 10% (v/v) heat-inactivated fetal bovine serum at 22 °C. Promastigotes were collected at the beginning of the stationary phase (day 5), counted, centrifuged and seeded at 10^6/mL in 10 mL of complete media.
The effect of the chemical compounds on the viability of L. infantum promastigotes was evaluated by a colorimetric MTT (3-(4,5-dimethylthiazol-2yl)-2,5-diphenyl tetrazolium bromide) 96-well plate assay as previously described in [7]. This test consisted of a reduction of tetrazolium salt to a […] crystal (blue formazan) by the succinate dehydrogenase activity of mitochondria in living cells, which can be quantified by spectrophotometry. Briefly, 90 μL of LV50 promastigotes harvested from the stationary growth phase of 10^6/mL culture were added to a 96-well culture plate with various concentrations of the selected compounds to obtain a final volume of 100 µL, compound concentrations of 1.5–100 μM, and a final concentration of 1% DMSO per well. Plates were incubated at 25 °C for 24 h.
(§1) Mock-treated THP-1-derived macrophages and promastigotes (1% DMSO) were used as controls. After 24 h of incubation, MTT solution was added at 1 mg/mL to each well and incubated at the appropriate cell temperatures for 4 h. Then, 150 μL of DMSO was added to each well to dissolve the blue formazan, and the optical density (OD) was measured at 560 nm with a microplate reader (MULTISCAN, Labsystems, Thermo Fisher Scientific, Ratastie, Finland).
The promastigotes and THP-1-derived macrophage viabilities were expressed as the percentage of the viable promastigotes or cells in treated conditions relative to the 1% DMSO cultures, as previously described in [7]. […]
On the technique in general: Tetrazolium dyes change colour on reduction, which living cells bring about.

Series [3] can be described thus: MTT cytotoxicity assay on macrophages. As to conditions: human. The format is cell-based, human. The procedure:
(§2) The human myelomonocytic cell line, THP-1, was ordered from the American Type Culture Collection (ATCC, TIB-202). Cells were maintained in RPMI 1640/Glutamax-I media (Gibco BRL, Bleiswijk, The Netherlands) supplemented with 10% heat-inactivated fetal calf serum (Gibco, Bleiswijk, The Netherlands) plus penicillin G (100 U/mL) and streptomycin ([…]). THP-1 cells were differentiated to macrophages after their treatment with 20 ng/mL phorbol […] (PMA) (Sigma, St. Louis, MO, USA) for 48 h at 37 °C, 5% CO2. The viability of THP-1 mature macrophage-like cells was determined to be >97% by the Trypan blue dye exclusion assay.
(§3) For the cytotoxicity assay, we used the THP-1-derived macrophages (50,000 cells/well) seeded in 96-well plates and treated with serial concentrations of compounds at the same conditions as for the promastigotes for 24 h.
as §1
(§4) The promastigotes and THP-1-derived macrophage viabilities were expressed as the percentage of the viable promastigotes or cells in treated conditions relative to the 1% DMSO cultures, as previously described in [7]. The half maximal inhibitory concentration (IC50) and 50% cytotoxic concentrations (CC50) values were calculated for all the tested compounds by interpolation.

For series [4], the system named is THP-1-derived macrophages. The series is described as follows: MTT cytotoxicity assay on macrophages. The format is cell-based, human. Conditions: MTT, 24 h; read-out: Uninfected THP-1-Derived Macrophages CC50. The procedure:
as §2, §3, §1, §4

The target of series [5] is T1, LieIF4A (Leishmania infantum, UniProt A4HRK0).
T1 construct: His6; made in house; host or cells: Escherichia coli Rosetta
T1 sequence (A4HRK0 1-403): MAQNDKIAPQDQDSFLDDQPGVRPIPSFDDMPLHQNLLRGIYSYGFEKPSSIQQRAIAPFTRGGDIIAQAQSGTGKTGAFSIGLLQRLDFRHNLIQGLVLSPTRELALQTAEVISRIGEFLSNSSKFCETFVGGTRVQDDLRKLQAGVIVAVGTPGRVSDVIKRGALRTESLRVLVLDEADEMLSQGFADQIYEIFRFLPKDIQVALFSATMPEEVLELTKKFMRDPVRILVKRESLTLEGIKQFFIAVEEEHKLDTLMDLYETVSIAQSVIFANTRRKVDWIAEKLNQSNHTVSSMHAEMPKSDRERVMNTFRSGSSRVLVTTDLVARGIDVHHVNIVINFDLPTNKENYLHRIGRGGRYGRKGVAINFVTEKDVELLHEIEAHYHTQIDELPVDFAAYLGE
As to conditions: cited from earlier work; for Ki: ATPase kinetics, calculated from data in ref 7; for IC50: read-out: LieIF4A ATPase assay IC50.

The target in series [6] is T2, eIF4AMus (Mus musculus, UniProt P60843).
T2 construct: His6; made in house; host or cells: Escherichia coli Rosetta
T2 sequence (P60843 whole entry): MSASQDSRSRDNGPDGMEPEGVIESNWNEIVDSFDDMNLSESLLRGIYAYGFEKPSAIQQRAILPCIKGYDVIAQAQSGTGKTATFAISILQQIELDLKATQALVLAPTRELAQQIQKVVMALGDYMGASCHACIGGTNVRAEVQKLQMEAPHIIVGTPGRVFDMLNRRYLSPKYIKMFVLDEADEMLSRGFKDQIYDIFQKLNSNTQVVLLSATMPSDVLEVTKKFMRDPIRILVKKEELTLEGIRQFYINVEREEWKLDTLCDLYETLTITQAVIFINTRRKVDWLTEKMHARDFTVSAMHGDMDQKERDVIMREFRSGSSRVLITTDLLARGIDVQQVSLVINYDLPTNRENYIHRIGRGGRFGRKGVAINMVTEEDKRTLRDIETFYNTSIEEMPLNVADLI
Details: method as in PMID 29346371. Conditions: ATPase kinetics, calculated from data in ref 7, cited from earlier work.

Series [7] has as its system L. infantum promastigotes (LV50). Also noted: method as in PMID 29346371. Conditions: cited from earlier work.
For series [8], the system named is THP-1-derived macrophages. As to conditions: cited from earlier work.
Series [9] has as its target T1, LieIF4A. The series is described as follows: RNA-dependent ATPase assay (Malachite green), LieIF4A. Format: biochemical. How it is done: (§5) A colorimetric assay was used to measure the phosphate released during ATP hydrolysis based on Malachite green, as previously described in [8, 9]. Reactions were performed at 37 °C in 96 well microtiter plates in a final volume of 50 μL. The reaction buffer contained 50 mM potassium acetate, 20 mM MES pH 6, 2 mM dithiothreitol (DTT), 0.1 mg/mL BSA and various concentrations of whole yeast RNA (Type XI-C, Sigma-Aldrich, St. Louis, MO, USA). 5 mM and 1 mM magnesium acetate were added to the LieIF4A and eIF4AMus reactions, respectively. Reactions were initiated by adding ATP; when not noted otherwise, the ATP concentration used was 1 mM. Reactions were stopped after various times with ethylenediaminetetraacetic acid (EDTA, final concentration 60 mM). The absorption at 630 nm was converted to phosphate concentration by a reference curve generated from a dilution series of a known phosphate concentration (0.1 mM Pi standard; Innova Biosciences, Cambridge, UK). Reaction velocities were determined by a linear regression fit of the phosphate generated against time. Only the initial linear phases of the curves were used. Velocities were determined for three independent experiments for each reaction condition. The Michaelis –Menten (Km) and the inhibition kinetics (Ki) constants were obtained by nonlinear regression using GraphPad Prism 8 (GraphPad Software).

Series [10] addresses T2, eIF4AMus. Description: RNA-dependent ATPase assay (Malachite green), eIF4AMus. Format: biochemical. The procedure: as §5
Series [11] concerns L. infantum promastigotes. Also noted: method as in PMID 21417924. As to conditions: cited from earlier work.
[12] abbreviates: L. infantum, read-out: Anti-leishmanial activity IC50.

Consider 7-α/β-aminocholesterol, for which, in series [1], the IC50 was 1.3 µM.

Regarding `CC(C)CCC[C@@H](C)[C@H]1CC[C@H]2[C@@H]3CC(=O)[C@H]4C[C@@H](O)CC[C@]4(C)[C@H]3CC[C@]12C` [6-ketocholestanol], the figures for the IC50 (in [2]; on LieIF4A [5]; in series [7] (setting [12])) were 37 ± 6.6 µM, > 1000 µM and 39.1 µM, respectively. Besides, the CC50 at 24 h in series [3] (THP-1-derived macrophages (PMA-differentiated, uninfected), MTT, 24 h, read-out: Uninfected THP-1-Derived Macrophages CC50) amounted to 77 µM. For the same compound, the CC50 in series [4] is 76.9 ± 2.1 µM. Also, the values for the Ki at LieIF4A [5] and on eIF4AMus [6] were 316 ± 80.7 µM and 485 ± 94.5 µM, respectively.

Turning to `CC(C)CCC[C@@H](C)[C@H]1CC[C@H]2[C@@H]3C[C@H](N)[C@H]4C[C@@H](O)CC[C@]4(C)[C@H]3CC[C@]12C` [6-α-aminocholestanol], the Ki at LieIF4A [5] is 19.5 ± 3.27 µM; at eIF4AMus [6] (read-out: Ki), 20.2 µM. The IC50 at LieIF4A [5] is 160 µM; in series [7] (setting [12]), 3.6 µM; in series [7] (MTT, measured using data in ref 7, read-out: Promastigotes LV50 IC50), 3.64 ± 0.1 µM. Besides, in [8], the CC50 was 35.2 ± 1.3 µM.

For `CC(C)CCC[C@@H](C)[C@H]1CC[C@H]2[C@@H]3[C@H](N)C=C4C[C@@H](O)CC[C@]4(C)[C@H]3CC[C@]12C` [7-α-aminocholesterol], the “Higher affinity (Ki) for LieIF4A than for eIF4AMus” value at LieIF4A [9] (Ki eIF4AMus / Ki LieIF4A) was ~ 9.4 fold. Besides, the Ki at LieIF4A [9] (Ki, ATPase kinetics, saturating yRNA) is 8.6 µM and 8.57 µM; on eIF4AMus [10] (ATPase kinetics, saturating yRNA), 80.5 µM. Moreover, the IC50 was 2.29 ± 0.4 µM in series [2] and 1.31 µM in series [1]. The compound also yielded a CC50 at 24 h in [3] (Uninfected THP-1-Derived Macrophages CC50) of 17.5 ± 3.4 µM.

With `CC(C)CCC[C@@H](C)[C@H]1CC[C@H]2[C@@H]3[C@@H](CN)C=C4C[C@@H](O)CC[C@]4(C)[C@H]3CC[C@]12C` [7-β-aminomethylcholesterol], the IC50 in [1] was 1.3 µM.

Turning to `Nc1ncnc2c1ncn2[C@@H]1O[C@H](COP(=O)(O)OP(=O)(O)OP(=O)(O)O)[C@@H](O)[C@H]1O` [ATP], the Km on LieIF4A [5] (saturating total yeast RNA, control DMSO, no test compound, read-out: Km (ATP hydrolysis)) was 150 ± 20 µM.

For `CC(C)CCC[C@@H](C)[C@H]1CC[C@H]2[C@@H]3CC=C4C[C@@H](O)CC[C@]4(C)[C@H]3CC[C@]12C` [Cholesterol], the “Effect on ATPase kinetics” value at LieIF4A [9] (300 µM compound) and at eIF4AMus [10] (300 µM compound) was “no effect” each time. Besides, in series [2] (24 h exposure), the “Effect on promastigotes viability” value was “no effect”.

`COc1ccc([C@@]23Oc4cc(OC)cc(OC)c4[C@]2(O)[C@H](O)[C@H](C(=O)N(C)C)[C@H]3c2ccccc2)cc1` [Rocaglamide A]: the “Increase of ATPase activity” value at LieIF4A [9] (50 µM rocaglamide A vs no compound, 1 ng/µL yRNA) worked out at 1.7 fold; on eIF4AMus [10] (50 µM rocaglamide A vs no compound, 55 ng/µL yRNA), 6.2 fold. In addition, the “Relative activity (to maximum velocity of eIF4AMus without rocaglamide A)” value turned out to be 0.80 ± 0.07 at LieIF4A [9] (50 µM rocaglamide A, 1 ng/µL yRNA) and 2.65 ± 0.03 on eIF4AMus [10] (50 µM rocaglamide A, 55 ng/µL yRNA). Also, on LieIF4A [9] (50 µM rocaglamide A, 1 ng/µL yRNA vs 340 ng/µL yRNA), the “ATPase activity with compound relative to saturating RNA without compound (less)” value came out at 2.3 fold. The “V (ATPase reaction velocity)” value amounted to 0.77 ± 0.07 µM/min at LieIF4A [9] (50 µM rocaglamide A, 1 ng/µL yRNA, 1 mM ATP, 820 nM protein, 10% DMSO) and 2.55 ± 0.03 µM/min on eIF4AMus [10] (50 µM rocaglamide A, 55 ng/µL yRNA, 1 mM ATP, 1200 nM protein, 10% DMSO). Besides, at eIF4AMus [10] (50 µM rocaglamide A, 55 ng/µL yRNA vs 340 ng/µL yRNA), the “ATPase activity with compound relative to saturating RNA without compound (more)” value is reported as ~2.7 fold. Further, in series [11], the EC50 was 16.5 µM.

For orientation: IC50 means the concentration that gives 50% inhibition. Broadly, the Ki is the dissociation constant of the complex between target and ligand, obtained from inhibition or displacement. A word on the Km: it is the concentration of substrate that gives half-maximal velocity. One may read the EC50 as the concentration needed to bring the measured effect to its halfway point.
